Like-named read-outs stand apart in the source and are kept apart here.
Assays:
recombinant human MetAP2 = target: T1, recombinant human MetAP2 (Homo sapiens, UniProt P50579); experiment: MetAP2 enzyme assay (inhibition of recombinant MetAP2, Met-Gly-Met-Met substrate); type: biochemical; settings: 50 nM
T1 construct: made in house; host or cells: High Five insect cells (Bac-to-Bac baculovirus)
Experimental: Exemplary procedures for expression and purification of MetAP2 are shown in Griffith et al. (PNAS (1998) 95(26):15183-15188). Briefly, recombinant His-tagged human MetAP2 is expressed by using a Bac-to-Bac baculovirus expression system (GIBCO/BRL). Recombinant baculovirus stocks are generated and amplified as per the manufacturer's instructions. Protein is harvested 36 hr after baculovirus infection of two 15-cm plates of High Five cells.
The cell pellet are weighed and lysed (in 5 ml/g of wet pellet) in pre-chilled lysis buffer [buffer B+1% Nonidet P-40/1 mM phenymethylsulfonyl fluoride (PMSF)/2 μg/ml leupeptin/2 μg/ml aprotinin/1 μg/ml pepstatin]. The lysate is incubated on ice for 10 min and centrifuged at 10,000×g for 10 min. […] The Talon resin is pelleted by centrifugation at 1,200×g for 3 min and washed with 4×10 ml of buffer B. During the final wash, the resin is slurried into a Bio-Rad Econo column. The 6×His-tagged MetAP2 is eluted with 6 ml of 50 mM imidazole in buffer B, and 0.5 ml fractions are collected. The amount and purity of recombinant MetAP2 is analyzed by the absorbance at 280 nm and SDS/PAGE (10% gel). The fractions containing the highest amounts of MetAP2 are pooled and dialyzed against 3 liters of buffer B overnight before storage at 4° C.
An enzyme assay is performed in a 96-well format as described in Griffith et al. (PNAS (1998) 95(26):15183-15188). […] To begin the enzymatic reaction, Met-Gly-Met-Met is added to a final concentration of 4 mM and incubated at 37° C. The reaction is quenched after 20 min by adding EDTA to a concentration of 10 mM. Released methionine is quantitated as described in Ben-Bassat et al. (J Bacteriol (1987) 169:751-757).
IC50 values are calculated and compounds herein are determined to be active inhibitors of MetAP2, with some having nanomolar activities.

[1] = Cell Based Assay (inhibition range)
[2] = 1 hr, read-out: MetAP2 Enzyme Assay 1 hr 50 nM
[3] = 2 hr, read-out: MetAP2 Enzyme Assay 2 hr 50 nM
[4] = 4 hr, read-out: MetAP2 Enzyme Assay 4 hr 50 nM

T1 sequence (P50579 whole entry): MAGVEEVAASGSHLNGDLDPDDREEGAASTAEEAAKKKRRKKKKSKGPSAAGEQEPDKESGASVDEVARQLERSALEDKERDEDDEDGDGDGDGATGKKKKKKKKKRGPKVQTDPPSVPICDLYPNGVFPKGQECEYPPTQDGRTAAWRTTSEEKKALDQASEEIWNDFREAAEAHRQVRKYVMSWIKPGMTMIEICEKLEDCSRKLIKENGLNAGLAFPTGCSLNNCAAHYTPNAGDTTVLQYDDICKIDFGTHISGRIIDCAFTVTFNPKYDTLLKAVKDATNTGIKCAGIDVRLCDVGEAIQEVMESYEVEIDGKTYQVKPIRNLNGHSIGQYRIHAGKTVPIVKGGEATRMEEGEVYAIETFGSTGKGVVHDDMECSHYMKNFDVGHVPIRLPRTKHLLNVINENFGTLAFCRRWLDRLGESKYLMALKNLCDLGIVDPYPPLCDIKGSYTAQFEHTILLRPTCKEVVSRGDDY

Row | Structure (SMILES) | inhibition at 0.05 µM (recombinant human MetAP2; [2]) | inhibition at 0.05 µM (recombinant human MetAP2; [3]) | inhibition at 0.05 µM (recombinant human MetAP2; [4]) | IC50 ([1]; in uM) | IC50 ([1]; cells printed in nM)
1 | CO[C@@H]1C(=O)CC[C@]2(CO2)[C@H]1C1(C)O[C@@H]1CCC(C)C (stereo in doubt) [Example 52, (3R,5 S)-4-((2R,3R)-3-isopentyl-2-methyloxiran-2-yl)-5-methoxy-1-oxaspiro[2.5]octan-6-one] | 0% | 0% | 17% |  | 
2 | CO[C@@H]1C(=CC=C(C)C)CC[C@]2(CO2)[C@H]1[C@@]1(C)O[C@@H]1CC=C(C)C [Example 21] | 0% | 0% | 0% | > 1 µM | 
3 | C=C1CC[C@]2(CO2)[C@@H]([C@@]2(C)O[C@@H]2C/C=C/CCCC)[C@@H]1OC [Example 22] | 0% | 0% | 0% | > 1 µM | 
4 | CCCC/C=C/C[C@H]1O[C@]1(C)[C@H]1[C@H](OC)[C@H](O)CC[C@]12CO2 [Example 24] | 0% | 0% | 0% |  | 0.01 to 0.1 µM
5 | CO[C@@H]1C(C)CC[C@]2(CO2)[C@H]1[C@@]1(C)O[C@@H]1CCC(C)C (stereo partly shown) [Example 26] | 0% | 0% | 0% |  | 
6 | CCCCCCCCCC[S+]([O-])[C@@H]1CC[C@]2(CO2)[C@@H]([C@@]2(C)O[C@@H]2CC=C(C)C)[C@@H]1OC (stereo partly shown) [Example 31] |  |  | 0% |  | 
7 | CO[C@@H]1[C@H](OC(=O)/C=C/C=C/C=C/C=C/C(=O)O)CC[C@]2(CO2)[C@H]1[C@@]1(C)O[C@@H]1CC=C(C)C [Example 36] |  |  | 64% |  | < 0.01 µM
8 | CCOC(=O)C=C1CC[C@]2(CO2)[C@@H]([C@@]2(C)O[C@@H]2CC=C(C)C)[C@@H]1OC [Example 37] |  |  | 96% |  | < 0.01 µM
9 | CO[C@@H]1C(=O)CC[C@]2(CO2)[C@H]1[C@@]1(C)O[C@@H]1CC=C(C)C [Example 51, (3R,5S)-5-methoxy-4-((2R,3R)-2-methyl-3-(3-methylbut-2-enyl)oxiran-2-yl)-1-oxaspiro[2.5]octan-6-one] | 0% | 44% | 78% |  | 
10 | CO[C@@H]1C(=O)C(C)C[C@]2(CO2)C1[C@@]1(C)O[C@@H]1CC=C(C)C (stereo partly drawn) [Example 53, (3R,5S)-5-methoxy-7-methyl-4-((2R,3R)-2-methyl-3-(3-methylbut-2-enyl)oxiran-2-yl)-1-oxaspiro[2.5]octan-6-one] | 0% | 0% | 28% |  | 
11 | CO[C@@H]1C(=O)CC[C@@](C)(O)[C@H]1[C@@]1(C)O[C@@H]1CCC(C)C [Example 54, (2S,4R)-4-hydroxy-3-((2R,3R)-3-isopentyl-2-methyloxiran-2-yl)-2-methoxy-4-methylcyclohexanone] | 0% | 0% | 0% |  | 
12 | CO[C@@H]1C(=O)CC[C@]2(CO2)[C@H]1C1(C)O[C@@H]1CC(=O)O (stereo partly shown) [Example 55] |  |  | 0% |  | 
13 | CO[C@@H]1C(=O)C=C[C@]2(CO2)[C@H]1[C@@]1(C)O[C@@H]1CC=C(C)C [Example 57, (3R,S)-7-methoxy-8-((2R,3R)-2-methyl-3-(3-methylbut-2-enyl)oxiran-2-yl)-1-oxaspiro[2.5]oct-4-en-6-one] |  |  | 37% |  | 
14 | CO[C@@H]1C(=O)CC[C@]2(CO2)[C@H]1C1(C)O[C@@H]1CC(=O)NCc1ccccc1 (stereo partly shown) [Example 58] |  |  | 0% |  | 
15 | CCOC(=O)CCCCC/C=C/C[C@H]1OC1(C)[C@H]1[C@H](OC)C(=O)CC[C@]12CO2 (stereo partly shown) [Example 59] |  |  | 0% |  | 0.01 to 0.1 µM

— patent US10259796B2, “Oxaspiro[2.5]octane derivatives and analogs” (Zafgen, Inc., priority 2011, dated 2019)
